Measured values reported in patent US20180071248A1, “COMPOSITION FOR IMPROVING CIRCADIAN RHYTHM” (SUNTORY HOLDINGS LIMITED, priority 2015, published 2018).

Key:
circadian rhythm = conditions: disclosed in NPLs 4 and 5; cited from earlier work
[1] = test system: Per 2 gene expression rhythm; assay: Per 2 gene expression rhythm in Per2::LUC knock-in mouse-derived embryonic fibroblast line (luciferase chemiluminescence, LumiCycle); type: cell-based; conditions: Per2::LUC mouse embryonic fibroblasts; each substance at 10 μM; FIG. 4
Description: The cell line used was Per2::LUC knock-in mouse-derived embryonic fibroblast line. Per2::LUC knock-in mouse is a mouse in which the luciferase gene serving as a reporter is introduced downstream of the promoter region of the clock gene Per 2. Therefore, a Per 2::LUC knock-in mouse-derived embryonic fibroblast line expresses the luciferase gene along with periodic expression of the clock gene. When Per 2::LUC knock-in mouse-derived embryonic fibroblasts are cultured in a culture medium containing luciferin, a luciferase substrate, the cells produce chemiluminescence periodically; thus, by monitoring the chemiluminescence, the expression rhythm of the clock gene Per 2 can be evaluated.
At first, about 5×10^5 cells of the Per2::LUC knock-in mouse-derived embryonic fibroblast line were seeded onto 35 mm culture dishes, and then treated with 200 nM dexamethasone for 2 hours to thereby reset (tune) the biorhythm of the cells. […] While the cell culture was continued, the chemiluminescence of the reporter gene was measured real-time with a luminometer (LumiCycle; produced by Actimetrics) for one minute at a frequency of every 10 minutes, and the measurement was continued for 5 days. Amplitude and period length were calculated from the obtained waveform to evaluate the effect of the test substance, a 1:1 mixture of sesamin/episesamin. […]

Row | SMILES | circadian rhythm amplitude (circadian rhythm) | circadian rhythm period (circadian rhythm) | amplitude of Per 2 gene expression [1]
1 | Cn1c(=O)c2c(ncn2C)n(C)c1=O [caffeine] | amplify circadian rhythm amplitude | lengthen circadian rhythm period | 
2 | Oc1cc2c(cc1[C@H]1OC[C@H]3[C@@H]1CO[C@@H]3c1ccc3c(c1)OCO3)OCO2 [sesaminol] |  |  | capable of increasing the amplitude
3 | c1cc2c(cc1[C@H]1OC[C@H]3[C@@H]1CO[C@@H]3c1ccc3c(c1)OCO3)OCO2 [sesamin] |  |  | capable of increasing the amplitude
